ChEMBL document CHEMBL1201862, “PubChem BioAssay data set” (2004)
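Exposure lasted 48 hours, with cells grown in 96-well plates and compounds tested at five concentrations. GI50 marks 50% less growth.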 The source made the active and inactive calls. No stated cut-off is given here; in the data, active = GI50 up to about 1.1 µM and inactive = higher.

Tests used:
Test in all cases: NCI anticancer screen, dose series, 48 h
CAKI-1 = test system: CAKI-1
MDA-MB-435 = test system: MDA-MB-435
Malme-3M = test system: Malme-3M
SK-MEL-5 = test system: SK-MEL-5
CCRF-CEM = test system: CCRF-CEM
UO-31 = test system: UO-31
EKVX = test system: EKVX
MCF7 = test system: MCF7
SR = test system: SR
SN12C = test system: SN12C
HT-29 = test system: HT-29
IGROV-1 = test system: IGROV-1
UACC-257 = test system: UACC-257
U-251 = test system: U-251
PC-3 = test system: PC-3
SF-295 = test system: SF-295
NCI-H460 = test system: NCI-H460
ACHN = test system: ACHN
OVCAR-4 = test system: OVCAR-4
LOX IMVI = test system: LOX IMVI
M14 = test system: M14
NCI-H226 = test system: NCI-H226
MOLT-4 = test system: MOLT-4
RXF 393 = test system: RXF 393
BT-549 = test system: BT-549
NCI-H23 = test system: NCI-H23
HOP-62 = test system: HOP-62
SK-OV-3 = test system: SK-OV-3
T47D = test system: T47D
OVCAR-5 = test system: OVCAR-5
K562 = test system: K562
COLO 205 = test system: COLO 205
DU-145 = test system: DU-145
SF-268 = test system: SF-268
NCI/ADR-RES = test system: NCI/ADR-RES
SF-539 = test system: SF-539
OVCAR-8 = test system: OVCAR-8
SK-MEL-2 = test system: SK-MEL-2
HL-60 = test system: HL-60
UACC-62 = test system: UACC-62
786-0 = test system: 786-0
TK-10 = test system: TK-10
A549 = test system: A549
MDA-MB-231 = test system: MDA-MB-231
HCT-116 = test system: HCT-116
NCI-H522 = test system: NCI-H522
MDA-N = test system: MDA-N
KM12 = test system: KM12
HOP-92 = test system: HOP-92
SW-620 = test system: SW-620
RPMI-8226 = test system: RPMI-8226
OVCAR-3 = test system: OVCAR-3

Measured: GI50

Cc1c(N2C(=O)C(Cl)C2c2ccc(Cl)cc2)c(=O)n(-c2ccccc2)n1C (configuration not stated)
inactive: CAKI-1 > 100 µM | MDA-MB-435 23.4 µM | Malme-3M > 100 µM | SK-MEL-5 > 100 µM | CCRF-CEM 23.1 µM | UO-31 > 100 µM | EKVX 71 µM | MCF7 41.6 µM | SR 26.4 µM | SN12C > 100 µM | HT-29 > 100 µM | IGROV-1 27.1 µM | UACC-257 14.2 µM | U-251 35.3 µM | PC-3 > 100 µM | SF-295 > 100 µM | NCI-H460 > 100 µM | ACHN 23.7 µM | OVCAR-4 > 100 µM | LOX IMVI 31 µM | M14 62.7 µM | NCI-H226 > 100 µM | MOLT-4 31.4 µM | RXF 393 > 100 µM | BT-549 > 100 µM | NCI-H23 23.9 µM | HOP-62 42 µM | SK-OV-3 > 100 µM | T47D 88.3 µM | OVCAR-5 > 100 µM | K562 45.5 µM | COLO 205 > 100 µM | DU-145 > 100 µM | SF-268 > 100 µM | NCI/ADR-RES > 100 µM | SF-539 36.1 µM | OVCAR-8 > 100 µM | SK-MEL-2 > 100 µM | HL-60 > 100 µM | UACC-62 75.2 µM | 786-0 33.1 µM | TK-10 > 100 µM | A549 > 100 µM | MDA-MB-231 > 100 µM | HCT-116 18.8 µM | NCI-H522 46.3 µM | MDA-N 30 µM | KM12 27.7 µM | HOP-92 60.5 µM | SW-620 60.8 µM | RPMI-8226 16 µM | OVCAR-3 75.3 µM
